These results are taken from ChEMBL document CHEMBL1143774, “Parallel strategies for the preparation and selection of liver-targeted glucocorticoid receptor antagonists” (Bioorg Med Chem Lett, 2007).

Series [1] concerns the target T1, Glucocorticoid receptor (Homo sapiens, UniProt P04150).
T1 sequence (P04150 whole entry): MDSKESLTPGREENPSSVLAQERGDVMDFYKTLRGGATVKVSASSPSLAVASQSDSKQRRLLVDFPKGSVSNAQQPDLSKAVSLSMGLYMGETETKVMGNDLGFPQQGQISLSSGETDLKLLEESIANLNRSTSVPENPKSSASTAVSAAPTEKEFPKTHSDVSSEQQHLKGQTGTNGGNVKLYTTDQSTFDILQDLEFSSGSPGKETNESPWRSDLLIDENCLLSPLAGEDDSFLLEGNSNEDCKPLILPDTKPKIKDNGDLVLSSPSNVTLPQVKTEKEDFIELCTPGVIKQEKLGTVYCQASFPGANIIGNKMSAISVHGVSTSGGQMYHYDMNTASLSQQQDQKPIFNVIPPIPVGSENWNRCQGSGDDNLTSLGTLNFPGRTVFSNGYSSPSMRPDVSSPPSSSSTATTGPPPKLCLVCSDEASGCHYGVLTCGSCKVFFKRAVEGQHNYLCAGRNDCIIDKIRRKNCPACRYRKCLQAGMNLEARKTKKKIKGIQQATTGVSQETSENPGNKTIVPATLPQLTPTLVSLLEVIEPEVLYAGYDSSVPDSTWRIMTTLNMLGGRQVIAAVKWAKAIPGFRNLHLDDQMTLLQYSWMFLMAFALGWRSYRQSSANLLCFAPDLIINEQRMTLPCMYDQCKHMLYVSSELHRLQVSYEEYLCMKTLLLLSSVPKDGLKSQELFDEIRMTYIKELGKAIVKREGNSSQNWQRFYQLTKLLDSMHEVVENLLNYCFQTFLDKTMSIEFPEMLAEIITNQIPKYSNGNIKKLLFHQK
Put plainly: Displacement of radiolabeled Dexamethasone from human GR.

Series [2] has as its target T1, Glucocorticoid receptor. Briefly: Inhibition of human GR transcriptional activation by HepTAT cells. It counts as cell-based.
For series [3], the target named is T1, Glucocorticoid receptor. Briefly: Inhibition of human GR expressed in hGRAF cells. Type of series: cell-based.
In series [4] the test system is Rattus norvegicus. Briefly: Inhibition of prednisilone-induced TAT level in Sprague-Dawley rats at 100 mg/kg, po. Type of series: functional.
Series [5] deals with Rattus norvegicus. Put plainly: Inhibition of prednisilone-induced lymphopenia in Sprague-Dawley rats at 100 mg/kg, po. It counts as functional.
Series [6] has as its system Rattus norvegicus. Briefly: Inhibition of prednisilone-induced glycogen depostion in Sprague-Dawley rats at 100 mg/kg, po. Type of series: functional.
Series [7] is described as follows: Ratio of drug level in liver to plasma in Sprague-Dawley rat at 1 hr. It counts as ADME, tissue-based. As to conditions: liver and plasma.
Series [8] can be described thus: Drug level in Sprague-Dawley rat liver after 1 hr. Type of series: ADME, tissue-based. As to conditions: read-out: Activity.

As usually defined, the Ki is a measure of affinity in units of concentration, obtained from inhibition or displacement. The low end stands for a stronger hold on the target, the high end for a looser hold on the target. Turning to `CC#C[C@]1(O)CC[C@H]2[C@@H]3CCC4=CC(=O)CCC4=C3[C@@H](c3ccc(N(C)CC(=O)N(C)c4ccc(C(=O)O)cc4)cc3)C[C@@]21C`, the Ki on Glucocorticoid receptor [1] is 0.5 nM; on Glucocorticoid receptor [2] it was 64 nM; on Glucocorticoid receptor [3] it was 21 nM.
As a reminder, the inhibition in vivo is the change of the read-out against control, counted positive when it falls. Consider `CC#C[C@]1(O)CC[C@H]2[C@@H]3CCC4=CC(=O)CCC4=C3[C@@H](c3ccc(N(C)CC(=O)N(C)Cc4cccc(C(=O)O)c4)cc3)C[C@@]21C`, for which the inhibition in vivo at 100 mg/kg in the series on Rattus norvegicus [4] is 20%; with Rattus norvegicus [5], -10%; with Rattus norvegicus [6], 9%.
Turning to `CC#C[C@]1(O)CC[C@H]2[C@@H]3CCC4=CC(=O)CCC4=C3[C@@H](c3ccc(N(C)CC(=O)N(Cc4ccc(C(=O)O)cc4)c4ccc(Br)cc4)cc3)C[C@@]21C`, the inhibition constant Ki on Glucocorticoid receptor [1] was 0.9 nM; at Glucocorticoid receptor [2] it was 33 nM; on Glucocorticoid receptor [3] it was 33 nM.
As to `CC#C[C@]1(O)CC[C@H]2[C@@H]3CCC4=CC(=O)CCC4=C3[C@@H](c3ccc(N(C)Cc4ccc(C(=O)N[C@H](CCSC)C(=O)O)cc4OC)cc3)C[C@@]21C`, the figures for the inhibition in vivo at 100 mg/kg with Rattus norvegicus [4], with Rattus norvegicus [5] and in the series with Rattus norvegicus [6] were -27%, -4% and 8%, respectively.
On to `CC#C[C@]1(O)CC[C@H]2[C@@H]3CCC4=CC(=O)CCC4=C3[C@@H](c3ccc(N(C)Cc4cccc(C(=O)O)c4)cc3)C[C@@]21C`, for which the Ki on Glucocorticoid receptor [1] came out at 3 nM; at Glucocorticoid receptor [2] it was 112 nM; on Glucocorticoid receptor [3], 30 nM.
In the case of `CC#C[C@]1(O)CC[C@H]2[C@@H]3CCC4=CC(=O)CCC4=C3[C@@H](c3ccc(N(C)Cc4ccc(C(=O)NCc5cccc(C(=O)O)c5)cc4)cc3)C[C@@]21C`, the inhibition in vivo at 100 mg/kg in the series on Rattus norvegicus [4] was 3%; in the series with Rattus norvegicus [5], -10%; in the series on Rattus norvegicus [6], -12%.
For the compound `CC#C[C@]1(O)CC[C@H]2[C@@H]3CCC4=CC(=O)CCC4=C3[C@@H](c3ccc(N(C)CC(=O)Nc4ccc(C(=O)O)cc4)cc3)C[C@@]21C`, the Ki on Glucocorticoid receptor [1] turned out to be 2.7 nM; on Glucocorticoid receptor [2], 75 nM; at Glucocorticoid receptor [3], 91.8 nM.
Usually Kp stands for tissue or fluid exposure divided by exposure in the circulation. As for `CC#C[C@]1(O)CC[C@H]2[C@@H]3CCC4=CC(=O)CCC4=C3[C@@H](c3ccc(N(C)Cc4ccc(C(C)C(=O)O)cc4)cc3)C[C@@]21C` (stereo partly drawn), in series [7], the Kp at 1 h was found to be 17. The concentration at 1 h in series [8] was 37000 ng/g.
Take `CC#C[C@]1(O)CC[C@H]2[C@@H]3CCC4=CC(=O)CCC4=C3[C@@H](c3ccc(N(C)CCCCC(=O)O)cc3)C[C@@]21C`: the Ki on Glucocorticoid receptor [1] is 4.8 nM; on Glucocorticoid receptor [2], 127 nM; on Glucocorticoid receptor [3] it was 15 nM.
Regarding `CC#C[C@]1(O)CC[C@H]2[C@@H]3CCC4=CC(=O)CCC4=C3[C@@H](c3ccc(N(C)Cc4ccc(CC(=O)O)cc4)cc3)C[C@@]21C`, the inhibition in vivo at 100 mg/kg in the series on Rattus norvegicus [4] was found to be 95%; in the series on Rattus norvegicus [5], 117%; in the series on Rattus norvegicus [6] it was 101%. The Ki stood at 1.8 nM at Glucocorticoid receptor [1], 32 nM at Glucocorticoid receptor [2] and 4.4 nM on Glucocorticoid receptor [3].
Consider `CC#C[C@]1(O)CC[C@H]2[C@@H]3CCC4=CC(=O)CCC4=C3[C@@H](c3ccc(N(C)Cc4ccc(C(=O)NCC(=O)O)cc4)cc3)C[C@@]21C`, for which the results for the inhibition in vivo at 100 mg/kg in the series on Rattus norvegicus [4], with Rattus norvegicus [5] and with Rattus norvegicus [6] were 48%, 40% and 47%, respectively. For the same compound, the values for the inhibition constant (Ki) on Glucocorticoid receptor [1], on Glucocorticoid receptor [2] and at Glucocorticoid receptor [3] were 0.6 nM, 36 nM and 90 nM, respectively.
Regarding `CC#C[C@]1(O)CC[C@H]2[C@@H]3CCC4=CC(=O)CCC4=C3[C@@H](c3ccc(N(C)Cc4ccc(C(=O)O)cc4)cc3)C[C@@]21C`, the inhibition in vivo at 100 mg/kg was 106% in the series on Rattus norvegicus [4], 123% with Rattus norvegicus [5] and 94% with Rattus norvegicus [6]. Besides, the Ki on Glucocorticoid receptor [1] is 1.8 nM; on Glucocorticoid receptor [2], 52 nM; on Glucocorticoid receptor [3] it was 12 nM.
In the case of `CC#C[C@]1(O)CC[C@H]2[C@@H]3CCC4=CC(=O)CCC4=C3[C@@H](c3ccc(N(C)CC(=O)Nc4nc(CC(=O)O)cs4)cc3)C[C@@]21C`, the inhibition constant Ki stood at 35 nM on Glucocorticoid receptor [1], 31 nM on Glucocorticoid receptor [2] and 765 nM on Glucocorticoid receptor [3].
`CC#C[C@]1(O)CC[C@H]2[C@@H]3CCC4=CC(=O)CCC4=C3[C@@H](c3ccc(N(C)CC(=O)N(Cc4ccccc4)Cc4ccc(C(=O)O)cc4)cc3)C[C@@]21C`: the inhibitory constant (Ki) was determined as 1.1 nM at Glucocorticoid receptor [1], 57 nM on Glucocorticoid receptor [2] and 39 nM at Glucocorticoid receptor [3].
For the compound `CC#C[C@]1(O)CC[C@H]2[C@@H]3CCC4=CC(=O)CCC4=C3[C@@H](c3ccc(N(C)C)cc3)C[C@@]21C` [MIFEPRISTONE], the inhibition in vivo at 100 mg/kg in the series on Rattus norvegicus [4] came to 101%; with Rattus norvegicus [5], 104%; with Rattus norvegicus [6] it was 77%.
